# In patent US7094394B2, “Methods and compositions for controlling biofilm development” (priority 1997, dated 2006):
# “Also recorded” adds a separate entry of the source.
# Key:
# [1] = test system: P. aeruginosa PAO1 wild-type biofilm; assay: Average cell to cell distance in biofilm, wild type; type: cell-based, Pseudomonas aeruginosa; settings: 10 uM in growing PAO1 biofilm, 10 days incubation
# Experimental: (§1) 2. Biofilm cell nearest neighbor analysis: This parameter is a measure of the average distance spacing between cells within a biofilm cell cluster or between cells at a substratum. Both measurements are influenced by the presence of the homoserine lactone OdDHL. The nearest neighbor analysis is performed by imaging 20 or more fields in a biofilm reactor and electronically determining the centroid of each cell. The relative distances from a marker cell to all other cells is computed and iterated for each cell in the population. The average nearest neighbor is then calculated. […] When OdDHL is added to the nutrient feed of the mutant defective in the production of that HSL, the average nearest neighbor increases to just over 9 um in distance.
# An analog of OdDHL, N-(2,2-difluorodecanoyl)-L-homoserine lactone was dissolved in 25% ethanol, 75% water by volume and added at a final concentration of 10 uM to growing biofilm cultures of P. aeruginosa PAO1 wild-type. Following 10 days incubation, the biofilm was analyzed for cell to cell distances, cell cluster thickness and response to treatment with 0.2% SDS. […] Finally, when treated with 0.2% SDS by weight, the treated biofilm was disrupted and dispersed within 30 minutes (FIGS. 5a to 5f).
# [2] = test system: P. aeruginosa PAO1 biofilm cell clusters; assay: Effect of detergent (0.2% SDS) on biofilm dispersion, wild type; type: cell-based, Pseudomonas aeruginosa
# Experimental: SDS on wild-type P. aeruginosa PAO1. The bacteria were grown in EPRI medium in continuous culture for 10 days (a,d). Following the incubation period, 0.2% SDS was added to the reactor and flow was halted for 30 minutes (b,e). Following incubation with SDS, flow was reinitiated (c,f).
# (§2) 3. […] It has been shown previously (Davies, Doctoral Thesis, Montana State University, 1996) that matrix polymer, specifically alginate, prevents the dissolution of P.aeruginosa cell clusters treated with 0.2% SDS. However, when cell clusters are formed in the absence of alginate they are completely disrupted in under 30 minutes (FIGS. 2a, 2b, 2c and 2d). By microscopic examination of cell cluster thickness before and after treatment with SDS or by capturing effluent samples following similar treatment, a quantitative evaluation of the effect of agents capable of blocking the production of detergent resistant matrix material can be made.
# (§3) In the present experiment, treatment with the detergent was shown not to affect the biofilm in the absence of released alginate lyase.
# Following 10 days incubation, the biofilm was analyzed for cell to cell distances, cell cluster thickness and response to treatment with 0.2% SDS. […] Finally, when treated with 0.2% SDS by weight, the treated biofilm was disrupted and dispersed within 30 minutes (FIGS. 5a to 5f).
# [3] = test system: P. aeruginosa PAO1 wild-type biofilm; assay: Biofilm cell cluster average thickness, wild type; type: cell-based, Pseudomonas aeruginosa; settings: 10 uM in growing PAO1 biofilm, 10 days incubation
# Experimental: (§4) 1. Biofilm average cell cluster depth: This parameter is a measure of the average thickness in microns of cell clusters in a biofilm. Depth measurements are performed microscopically, by measuring the maximum distance from the substratum to the apex of a biofilm cell cluster at the bulk water interface in a steady state biofilm for a minimum of 20 cell clusters. Previous measurements have shown that with P. aeruginosa, the average cell cluster depth is 102.3 um with a standard error of the mean of 20.5 um. When the gene responsible for the production of the homoserine lactone OdDHL is knocked out, the average cell cluster depth drops to only 22.8 um with a standard error of the mean of 10.0.
# Continuous culture studies. […]
# (§5) Log phase P. aeruginosa were inoculated through a septum approximately 1 cm upstream from the flow cell while flow was maintained. […] Flow through the system was then increased to remove any bacteria attached to the inside surface of the coverslip (as determined by microscopy). […]
# An analog of OdDHL, N-(2,2-difluorodecanoyl)-L-homoserine lactone was dissolved in 25% ethanol, 75% water by volume and added at a final concentration of 10 uM to growing biofilm cultures of P. aeruginosa PAO1 wild-type. Following 10 days incubation, the biofilm was analyzed for cell to cell distances, cell cluster thickness and response to treatment with 0.2% SDS. […]
# [4] = test system: P. aeruginosa PAO-JP1 biofilm cell clusters; assay: Effect of detergent (0.2% SDS) on biofilm dispersion, lasI knockout; type: cell-based, Pseudomonas aeruginosa
# Experimental: FIGS. 2a, 2b, 2c, and 2d are cell cluster studies which show the effect of the addition of 0.2% SDS to a biofilm cell cluster of the lasI knockout strain P. aerguginosa PAO-JP1. The strain was grown in EPRI medium for 10 days in continuous culture reactor under flowing conditions (a). SDS was added to the culture reactor and flow was turned off for 30 min (b,c). Following incubation in the presence of SDS, flow was reinitiated (d);
# as §2, §3
# [5] = test system: P. aeruginosa PAO-JP2 biofilm cell clusters; assay: Effect of detergent (0.2% SDS) on biofilm dispersion, double mutant; type: cell-based, Pseudomonas aeruginosa
# Description: as §3
# algD promoter = assay: Alginate promoter reporter activity (beta-galactosidase), algD; type: cell-based, P. aeruginosa strain 8830; settings: batch culture 48 hours, 10 uM OdDHL or 20 uM BHL
# Experimental: (§6) FIGS. 3a and 3b are alginate promoter studies which show the activity of the alginate promoters algC, and algD. Cultures of P. aeruginosa strain 8830 were grown for 48 hours in batch culture flasks containing EPRI medium. Test flasks were amended by either 10 uM OdDHL (PAI), 20 uM BHL (butyryl-L-homoserine lactone) or both (PAI+BHL). Following incubation, cells were harvested and promoter activity was measured as specific activity of the beta-galactosidase reporter enzyme as normalized to cell protein.
# (§7) 4. […] Alginate is a common matrix material in biofilms, and is not exclusive to P. aeruginosa. The sensitivity of P. aeruginosa to HSL activity provides a rapid assay for HSLs that is sensitive and quantitative. The responsiveness of the specific biofilm genes algC and algD to HSL activity allows assays to be performed in liquid or on semi solid medium. This provides the opportunity to perform rapid screening of test molecules for their effect on alginate production.
# [6] = test system: P. aeruginosa PAO-JP1 biofilm; assay: Biofilm average cell cluster depth, OdDHL knockout; type: cell-based, Pseudomonas aeruginosa; settings: OdDHL added back to nutrient feed of OdDHL knockout; standard error 25.2
# Experimental: as §4
# (§8) Continuous culture studies. A continuous culture apparatus was developed to observe the growth and development of biofilms attached to a glass substratum. The apparatus was configured as a once through flow cell system. The influent defined culture medium was retained in a four liter glass reservoir. […]
# as §5
# [7] = test system: P. aeruginosa JP1 biofilm; assay: Biofilm cell nearest neighbor analysis, OdDHL knockout; type: cell-based, Pseudomonas aeruginosa; settings: OdDHL (10 uM) added to nutrient feed of OdDHL-defective mutant, at the substratum
# Experimental: as §1
# algC promoter = assay: Alginate promoter reporter activity (beta-galactosidase), algC; type: cell-based, P. aeruginosa strain 8830; settings: batch culture 48 hours, 10 uM OdDHL or 20 uM BHL
# Experimental: as §6, §7
# [8] = test system: P. aeruginosa PAO-JP2 biofilm; assay: Biofilm architecture recovery in double mutant (microscopy); type: cell-based, Pseudomonas aeruginosa; settings: double mutant cultured with 10 μM OdDHL in fresh medium
# Description: The most unequivocal experimental design, to determine the role of HSL signal molecules on the formation of biofilms by cells of P. aeruginosa, was to use direct microscopic methods to monitor biofilm formation by cells of HSL negative mutants. For this reason planktonic cells of a wild-type strain (PAO1), and of three mutants incapable of synthesizing specific HSLs, were introduced into flow cells, and adhesion and biofilm formation were monitored by means of confocal scanning laser microscopy (CSLM). Using these techniques, it is possible to monitor the development of live biofilms of the strains of interest.
# as §8, with “reservoir. Medium from the influent reservoir was pumped through silicone tubing via a Masterflex pump to an aeration flask sparged with a filtered air source.” for “reservoir.”
# as §5
# [9] = test system: P. aeruginosa PDO100 biofilm; assay: Biofilm dispersion by BHL in rhlI knockout; type: cell-based, Pseudomonas aeruginosa
# Experimental: This hypothesis was investigated by growing biofilms of P. aeruginosa PDOlOO and adding BHL to the influent medium at a concentration of 20 μM after 7 days growth. […] When P. aeruginosa PDOIOO was grown in the absence of BHL, medium flow was turned off after 7 days. Following cessation of flow, no dispersion of cell clusters was observed over the duration of the observation period of 96 hours.
structure (smiles),measurement,setting,value
"CCCCCCCCC(F)(F)C(=O)N[C@H]1CCOC1=O [N-(2,2-difluorodecanoyl)-L-homoserine lactone]",average cell to cell distance,[1],less than 4 um
same,time to disruption and dispersion on treatment with 0.2% SDS,[2]; PAO1 biofilm grown 10 days with 10 uM blocking agent,≤ 30 min
same,cell cluster dispersion after 0.2% SDS and reinitiation of flow,"[2]; PAO1 cultured 10 days in presence of 20 uM OdDHL analog, SDS 30 minutes without flow",disperses completely
same,cell cluster average thickness,[3],under 20 um
"CCCCCCCCCCCCOS(=O)(=O)[O-].[Na+] [SDS, sodium dodecyl sulfate]",dispersion of cell clusters by SDS,"[4]; 0.2% SDS, PAO-JP1 without added HSL",disperse completely
same,time to complete disruption of cell clusters by SDS,"[4]; 0.2% SDS, cell clusters formed in the absence of alginate (FIGS. 2a-2d)",under 30 minutes
same,dispersion of cell clusters by SDS,[5],disperse completely
same,effect of SDS on cell cluster integrity/dispersion,"[2]; 0.2% SDS, untreated wild-type PAO1, sulfate",no effect; also recorded: no dispersion or release of bacteria
"CCCCCCCCCC(=O)CC(=O)N[C@H]1CCOC1=O [OdDHL, N-(3-oxododecanoyl)-L-homoserine lactone]",algD promoter response,algD promoter,sensitive
same,dispersion of cell clusters by 0.2% SDS,[4]; PAO-JP1 grown in the presence of 10 μM OdDHL,did not disperse bacteria in the cell clusters
same,average cell cluster thickness,[6],100.1 um
same,average nearest neighbor distance,[7],over 9 um
same,algC promoter response,algC promoter,sensitive
same,biofilm architecture phenotype,[8],recovery of the intermediary phenotype
"CCCC(=O)N[C@H]1CCOC1=O [BHL, N-butyryl-L-homoserine lactone]",algD promoter response,algD promoter,sensitive
same,algC promoter response,algC promoter,sensitive
same,effect on biofilm with medium flow on,"[9]; 20 μM BHL in influent medium after 7 days growth, 24 hours",no observable effect
same,detachment after medium flow shut off,"[9]; 20 μM BHL, flow off for 16 hours, detachment continued for three hours",significant detachment
